Measurements: patent US8652536B2, “Skin clarifying complex, use of said complex, cosmestic or pharmaceutical composition comprising said complex and method for application thereof” (Natura Cosmeticos S.A., priority 2009, dated 2014)

Experiments:
Assay type in all cases: cell-based
line B16 melanocytes = test: cells; conditions: for amount of melanin, % control: vs Control DMSO
Method: The assay methodology for the test lasted for five days in which, initially, line B16 melanocytes were plated on 12 well-conditioned containers, at a rate of 75,000 cells/plate.
On the three following days, 10mg (11 μl to linoleic acid) of component in the mixture were diluted in 100 μl of DMSO (dimethyl-sulfoxide) and, then, 9.9 ml of DMEM (culture medium) serum free were added so as to finally obtain 1 mg/ml of stock solution.
Sequentially, these solutions were incubated at 37° C. to assist solubilization of the samples. 10% bovine fetal serum (BFS) were added to the final dilution.
The actives are: gallic acid and linoleic acid.
On day five of the test the cells were divided into two steps of characterization: • Assessment of melanin in which the cells were first “washed” with PBS and then the cellular layer was dissolved into 500 μl of 3N NaOH and the suspension homogenized by pipetting. Two 200 μl portions of suspension were plated for optical reading at 400 nm.

[1] = tested on: culture medium corresponding to the epidermis; test: Melanin extracted from epidermis culture after 6 days of treatment; conditions: 6 days treatment, kojic acid 250 μM, A 25 μg/ml, B 75 μg/ml, A + B 25 + 75 μg/ml; for melanin extracted from epidermis, Mean (%): % of control; for Reduction (%) of melanin extracted from epidermis: vs control
Method: In another example samples containing an extract of Brazilian […] extract (A), linoleic acid (B) and a mixture of the active ingredients linoleic acid and gallic acid (A+B), respectively, were compared to a control and to kojic acid as far as the reduction of the amount of melanin is concerned. Each sample was applied to a culture medium corresponding to the epidermis and the concentrations of melanin were measured after 6 days of treatment.

3T3 cells [2] = test: Phototoxicity test, Neutral Red capture with and without UVA radiation; conditions: with and without non-cytotoxic dose of UVA
Method: Cytotoxicity assay allows determining the cytotoxic concentration of an active, when 3T3 cells are incubated therewith for 24 hours. Toxicity is determined as a function of cell viability, monitored by incubation of 3T3 cells with Neutral Red, and essential dye incorporated by living cells 24 hours 24 hours after contacting the active. Such assessment uses methodologies established by the National Institute of Health (NIH), USA, acknowledged internationally (Guidance NIH, 2001). The phototoxicity test is based on a comparison of the toxicity of an active in the presence and absence of a non-cytotoxic dose of UVA radiation. Phototoxicity is measured by Neutral Red capture by those cells surviving incubation with the active, according to a protocol already established and standardized by COLIPA and OECD (ZEBET/ECVAM/COLIPA, 1998; OECD, 2004). Phototoxicity/photoirritation is defined as the toxic response caused after a first exposure of the skin to certain products/actives and the subsequent exposure to sun light or induced by an irradiation of the skin after systemic administration of an active/product.

3T3 cells [3] = test: Cytotoxicity assay, Neutral Red, 24 hours incubation

Compound	melanin synthesis, % control (line B16 melanocytes; comparison with pharmaceutical and market actives at the same concentration, printed 0.01 mg/ml, α-MSH, FIG. 4) [% control]	melanin extracted from epidermis, Mean (%) [1] [%]	melanin extracted from epidermis, Mean [1] [µg/mL]	Reduction (%) of melanin extracted from epidermis ([1]; listed as B) [%]	Reduction (%) of melanin extracted from epidermis ([1]; listed as sample B) [%]	Phototoxicity (3T3 cells [2])	Cytotoxicity (3T3 cells [3])	inhibition at 25 µg/mL (line B16 melanocytes; Melanocyte, active alone at 0.025 mg/ml (its concentration in the mixture), read-out: inhibition of melanin by active alone) [%]	inhibition at 50 µg/mL (line B16 melanocytes; Melanocyte, active alone at 0.05 mg/ml (its concentration in the mixture), read-out: inhibition of melanin by active alone) [%]	inhibition at 75 µg/mL (line B16 melanocytes; Melanocyte, active alone at 0.075 mg/ml (its concentration in the mixture), read-out: inhibition of melanin by active alone) [%]	amount of melanin, % control (line B16 melanocytes; active alone at 0.025 mg/ml, α-MSH) [% control]	amount of melanin, % control (line B16 melanocytes; active alone at 0.05 mg/ml, α-MSH) [% control]	amount of melanin, % control (line B16 melanocytes; active alone at 0.075 mg/ml, α-MSH) [% control]	Reduction (%) of melanin extracted from epidermis [1] [%]	Reduction (%) of melanin extracted from epidermis ([1]; listed as kojic acid)
OC[C@H]1O[C@@H](Oc2ccc(O)cc2)[C@H](O)[C@@H](O)[C@@H]1O [Arbutin, reference compound]	82.5	–	–	–	–	–	–	–	–	–	–	–	–	–	–
CCCCC/C=C\C/C=C\CCCCCCCC(=O)O [linoleic acid]	–	80.67	21.4	19.33	19.3	Not phototoxic	Not cytotoxic	8.1	15.9	19	91.9	84.1	81.0	–	–
O=c1cc(CO)occ1O [Kojic acid, reference compound]	–	78.98	20.95	–	–	–	–	–	–	–	–	–	–	21.02	about 21.02%
